Where two headings read alike, the source gives them in different places.
System: male Wistar rats injected with beta-amyloid peptide 25-35 into NBM
Details: 1 mg/kg once a day for 7 days from day 16 after amyloid injection, retention trial 24 h after acquisition, cut-off 180 s, n=8, control 48 ± 11
Experimental: Beta-amyloid was administered bilaterally into NBM of male Wistar rats in dose of 2 μg per each side. […] Control rats received saline intranasally. On day next to the last day of the treatment, passive avoidance performance in rats was tested for two consecutive days. A two-compartment, step-through, passive avoidance apparatus consisting of illuminated (25×40×25 cm) and dark (25×40×25 cm) compartments attached to an electrified grid floor and separated by a guillotine door (8×8 cm) was used. In the acquisition trial, the rat was placed in the illuminated compartment in a position its tail directed to the closed door for 2 min to habituate to the apparatus. The guillotine door was opened and time to enter to dark compartment was recorded. When the rat entered to dark compartment completely (four foots in dark compartment), the guillotine door was closed and the rat was delivered an electrical shock of 0.8 mA for 3 sec through the grid floor. After the shock, the rat was immediately placed in home cage. In the retention trial, conducted 24 h after the acquisition trial, the rat was placed in the illuminated compartment and the retention latency to enter into the dark compartment was recorded until 180 s had elapsed. […] Data are presented as retention latency mean±SD (n=8).

Row | SMILES | Latency (retention latency to enter the dark compartment, mean±SD) (intranasally) | Latency (retention latency to enter the dark compartment, mean±SD) (intraperitoneally)
1 | C[N+](C)(C)CCO.O=C([O-])CCC(=O)O [Compound of formula (I)] | 103 ± 18 s | 55 ± 18 s
2 | C[N+](C)(C)CCO.O=C([O-])CCC(=O)[O-].[K+] [Compound of formula (IV)] | 65 ± 16 s | 49 ± 17 s
3 | C[N+](C)(C)CCO.O=C([O-])CCC(=O)[O-].[Na+] [Compound of formula (III)] | 87 ± 19 s | 53 ± 28 s

— patent publication US20100144773A1 (priority 2007, published 2010)
